In PubChem BioAssay AID1259407 (Chemical Carcinogenesis Research Information System (CCRIS), 2018):
Activity calls are given as the source filed them. How the calls were made is not given here.

Tested on: CCRIS mutagenicity, Ames/micronucleus/aberration tests
Experiment: CCRIS mutagenicity studies
Source text: The CCRIS database contains chemical records with carcinogenicity, mutagenicity, tumor promotion, and tumor inhibition test results. It was developed by the National Cancer Institute (NCI). Data are derived from studies cited in primary journals, current awareness tools, NCI reports, and other sources. Test results have been reviewed by experts in carcinogenesis and mutagenesis.
CCRIS provides historical information from the years 1985 - 2011. It is no longer updated.
This is an archive assay for CCRIS mutagenicity studies.

[1] = Test System: AMES SALMONELLA TYPHIMURIUM, Strain/Indicator: TA100, Metabolic Activation: NONE, Method: STANDARD PLATE

`C=CC(=C)CCC=C(C)C` was tested, and the mutagenic call (End Point: E. coli, Strain/Indicator: WP2uvrA/pKM101, Metabolic Activation: None, Method: Preincubation) was “inactive; negative”, the mutagenic call (End Point: E. coli, Strain/Indicator: WP2uvrA/pKM101, Metabolic Activation: Rat, Liver, S-9, Aroclor 1254 (10%), Method: Preincubation) was “inactive; negative” and the mutagenic call (End Point: In vivo micronucleus, Test System: Micronucleated normochromatic erythrocytes, Species: Mouse, Strain/Sex: B6C3F1 / Female, Route: Oral) was “inactive; negative”. For the same molecule, the mutagenic call (End Point: In vivo micronucleus, Test System: Micronucleated normochromatic erythrocytes, Species: Mouse, Strain/Sex: B6C3F1 / Male, Route: Oral) was “inactive; negative”, the mutagenic call (Test System: AMES SALMONELLA TYPHIMURIUM, Strain/Indicator: TA97A, Metabolic Activation: NONE, Method: STANDARD PLATE) was “inactive; negative” and the mutagenic call (Test System: AMES SALMONELLA TYPHIMURIUM, Strain/Indicator: TA97A, Metabolic Activation: RAT, LIVER, S-9, AROCLOR 1254, Method: STANDARD PLATE) was “inactive; negative”. The mutagenic call (Test System: AMES SALMONELLA TYPHIMURIUM, Strain/Indicator: TA98, Metabolic Activation: NONE, Method: STANDARD PLATE) was “inactive; negative”, the mutagenic call (Test System: AMES SALMONELLA TYPHIMURIUM, Strain/Indicator: TA98, Metabolic Activation: RAT, LIVER, S-9, AROCLOR 1254, Method: STANDARD PLATE) was “inactive; negative” and the mutagenic call [1] was “inactive; negative”. For the same molecule, the mutagenic call (Test System: AMES SALMONELLA TYPHIMURIUM, Strain/Indicator: TA100, Metabolic Activation: RAT, LIVER, S-9, AROCLOR 1254, Method: STANDARD PLATE) was “inactive; negative”, the mutagenic call (Test System: AMES SALMONELLA TYPHIMURIUM, Strain/Indicator: TA1535, Metabolic Activation: NONE, Method: STANDARD PLATE) was “inactive; negative” and the mutagenic call (Test System: AMES SALMONELLA TYPHIMURIUM, Strain/Indicator: TA1535, Metabolic Activation: RAT, LIVER, S-9, AROCLOR 1254, Method: STANDARD PLATE) was “inactive; negative”. For the same molecule, the mutagenic call (Test System: Ames Salmonella typhimurium, Strain/Indicator: TA97, Metabolic Activation: Hamster, Liver, S-9, Aroclor 1254 (10%), Method: Preincubation) was “inactive; negative”, the mutagenic call (Test System: Ames Salmonella typhimurium, Strain/Indicator: TA97, Metabolic Activation: Hamster, Liver, S-9, Aroclor 1254 (30%), Method: Preincubation) was “inactive; negative” and the mutagenic call (Test System: Ames Salmonella typhimurium, Strain/Indicator: TA97, Metabolic Activation: None, Method: Preincubation) was “inactive; negative”. The mutagenic call (Test System: Ames Salmonella typhimurium, Strain/Indicator: TA97, Metabolic Activation: Rat, Liver, S-9, Aroclor 1254 (10%), Method: Preincubation) was “inactive; negative”, the mutagenic call (Test System: Ames Salmonella typhimurium, Strain/Indicator: TA97, Metabolic Activation: Rat, Liver, S-9, Aroclor 1254 (30%), Method: Preincubation) was “inactive; negative” and the mutagenic call (Test System: Ames Salmonella typhimurium, Strain/Indicator: TA98, Metabolic Activation: Hamster, Liver, S-9, Aroclor 1254 (10%), Method: Preincubation) was “inactive; negative”. For the same molecule, the mutagenic call (Test System: Ames Salmonella typhimurium, Strain/Indicator: TA98, Metabolic Activation: Hamster, Liver, S-9, Aroclor 1254 (30%), Method: Preincubation) was “inactive; negative”, the mutagenic call (Test System: Ames Salmonella typhimurium, Strain/Indicator: TA98, Metabolic Activation: None, Method: Preincubation) was “inactive; negative” and the mutagenic call (Test System: Ames Salmonella typhimurium, Strain/Indicator: TA98, Metabolic Activation: Rat, Liver, S-9, Aroclor 1254 (10%), Method: Preincubation) was “inactive; negative”. For the same molecule, the mutagenic call (Test System: Ames Salmonella typhimurium, Strain/Indicator: TA98, Metabolic Activation: Rat, Liver, S-9, Aroclor 1254 (30%), Method: Preincubation) was “inactive; negative”, the mutagenic call (Test System: Ames Salmonella typhimurium, Strain/Indicator: TA100, Metabolic Activation: Hamster, Liver, S-9, Aroclor 1254 (10%), Method: Preincubation) was “inactive; negative” and the mutagenic call (Test System: Ames Salmonella typhimurium, Strain/Indicator: TA100, Metabolic Activation: Hamster, Liver, S-9, Aroclor 1254 (30%), Method: Preincubation) was “inactive; negative”. The mutagenic call (Test System: Ames Salmonella typhimurium, Strain/Indicator: TA100, Metabolic Activation: None, Method: Preincubation) was “inactive; negative”, the mutagenic call (Test System: Ames Salmonella typhimurium, Strain/Indicator: TA100, Metabolic Activation: Rat, Liver, S-9, Aroclor 1254 (10%), Method: Preincubation) was “inactive; negative” and the mutagenic call (Test System: Ames Salmonella typhimurium, Strain/Indicator: TA100, Metabolic Activation: Rat, Liver, S-9, Aroclor 1254 (30%), Method: Preincubation) was “inactive; negative”. For the same molecule, the mutagenic call (Test System: Ames Salmonella typhimurium, Strain/Indicator: TA1535, Metabolic Activation: Hamster, Liver, S-9, Aroclor 1254 (10%), Method: Preincubation) was “inactive; negative”, the mutagenic call (Test System: Ames Salmonella typhimurium, Strain/Indicator: TA1535, Metabolic Activation: Hamster, Liver, S-9, Aroclor 1254 (30%), Method: Preincubation) was “inactive; negative” and the mutagenic call (Test System: Ames Salmonella typhimurium, Strain/Indicator: TA1535, Metabolic Activation: None, Method: Preincubation) was “inactive; negative”. The mutagenic call (Test System: Ames Salmonella typhimurium, Strain/Indicator: TA1535, Metabolic Activation: Rat, Liver, S-9, Aroclor 1254 (10%), Method: Preincubation) was “inactive; negative”, the mutagenic call (Test System: Ames Salmonella typhimurium, Strain/Indicator: TA1535, Metabolic Activation: Rat, Liver, S-9, Aroclor 1254 (30%), Method: Preincubation) was “inactive; negative” and the mutagenic call (Test System: CHINESE HAMSTER V-79, Strain/Indicator: V-79/6-THIOGUANINE (HGPRT), Metabolic Activation: NONE, Method: PREINCUBATION) was “inactive; negative”. For the same molecule, the mutagenic call (Test System: CHINESE HAMSTER V-79, Strain/Indicator: V-79/6-THIOGUANINE (HGPRT), Metabolic Activation: RAT, LIVER, S-9, Method: PREINCUBATION) was “inactive; negative”, the mutagenic call (Test System: E. coli, Strain/Indicator: WP2 IC185 trpE65, Metabolic Activation: None, Method: Plate incorporation (Test material solvent: ethanol)) was “inactive; negative” and the mutagenic call (Test System: E. coli, Strain/Indicator: WP2 IC202 trpE65 oxyR/pKM101, Metabolic Activation: None, Method: Plate incorporation (Test material solvent: ethanol)) was “inactive; negative”.
With `N#Cc1ccc(CO)cc1` the mutagenic call [1] was “inactive; negative”.
For `COCCOC(C)=O`, the mutagenic call (End Point: IN VITRO CHROMOSOMAL ABERRATIONS, Test System: CHO-LB CELLS, Metabolic Activation: NONE) was “inactive; negative”, the mutagenic call (End Point: IN VITRO CHROMOSOMAL ABERRATIONS, Test System: CHO-LB CELLS, Metabolic Activation: RAT, LIVER, S-9, AROCLOR 1254) was “active; positive” and the mutagenic call (Test System: AMES SALMONELLA TYPHIMURIUM, Strain/Indicator: TA97, Metabolic Activation: HAMSTER, LIVER, S-9, AROCLOR 1254 (10 OR 30%), Method: PREINCUBATION) was “inactive; negative”. The mutagenic call (Test System: AMES SALMONELLA TYPHIMURIUM, Strain/Indicator: TA97, Metabolic Activation: NONE, Method: PREINCUBATION) was “inactive; negative”, the mutagenic call (Test System: AMES SALMONELLA TYPHIMURIUM, Strain/Indicator: TA97, Metabolic Activation: RAT, LIVER, S-9, AROCLOR 1254 (10 OR 30%), Method: PREINCUBATION) was “inactive; negative” and the mutagenic call (Test System: AMES SALMONELLA TYPHIMURIUM, Strain/Indicator: TA98, Metabolic Activation: HAMSTER, LIVER, S-9, AROCLOR 1254 (10 OR 30%), Method: PREINCUBATION) was “inactive; negative”. The mutagenic call (Test System: AMES SALMONELLA TYPHIMURIUM, Strain/Indicator: TA98, Metabolic Activation: NONE, Method: PREINCUBATION) was “inactive; negative”, the mutagenic call (Test System: AMES SALMONELLA TYPHIMURIUM, Strain/Indicator: TA98, Metabolic Activation: RAT, LIVER, S-9, AROCLOR 1254 (10 OR 30%), Method: PREINCUBATION) was “inactive; negative” and the mutagenic call (Test System: AMES SALMONELLA TYPHIMURIUM, Strain/Indicator: TA100, Metabolic Activation: HAMSTER, LIVER, S-9, AROCLOR 1254 (10 OR 30%), Method: PREINCUBATION) was “inactive; negative”. The mutagenic call (Test System: AMES SALMONELLA TYPHIMURIUM, Strain/Indicator: TA100, Metabolic Activation: NONE, Method: PREINCUBATION) was “inactive; negative”, the mutagenic call (Test System: AMES SALMONELLA TYPHIMURIUM, Strain/Indicator: TA100, Metabolic Activation: RAT, LIVER, S-9, AROCLOR 1254 (10 OR 30%), Method: PREINCUBATION) was “inactive; negative” and the mutagenic call (Test System: AMES SALMONELLA TYPHIMURIUM, Strain/Indicator: TA1535, Metabolic Activation: HAMSTER, LIVER, S-9, AROCLOR 1254 (10 OR 30%), Method: PREINCUBATION) was “inactive; negative”. For the same molecule, the mutagenic call (Test System: AMES SALMONELLA TYPHIMURIUM, Strain/Indicator: TA1535, Metabolic Activation: NONE, Method: PREINCUBATION) was “inactive; negative”, the mutagenic call (Test System: AMES SALMONELLA TYPHIMURIUM, Strain/Indicator: TA1535, Metabolic Activation: RAT, LIVER, S-9, AROCLOR 1254 (10 OR 30%), Method: PREINCUBATION) was “inactive; negative” and the mutagenic call (Test System: AMES SALMONELLA TYPHIMURIUM, Strain/Indicator: TA1537, Metabolic Activation: HAMSTER, LIVER, S-9, AROCLOR 1254 (30%), Method: PREINCUBATION) was “inactive; negative”. The mutagenic call (Test System: AMES SALMONELLA TYPHIMURIUM, Strain/Indicator: TA1537, Metabolic Activation: NONE, Method: PREINCUBATION) was “inactive; negative” and the mutagenic call (Test System: AMES SALMONELLA TYPHIMURIUM, Strain/Indicator: TA1537, Metabolic Activation: RAT, LIVER, S-9, AROCLOR 1254 (30%), Method: PREINCUBATION) was “inactive; negative”.
With `[N-]=[N+]=NCC(O)Cn1cnc2c(N)ncnc21` (stereo not drawn) the mutagenic call [1] was “active; positive”.
In the case of `CC(=O)OC[C@]12CCC(C)=C[C@H]1O[C@@H]1[C@H](O)[C@@H](OC(C)=O)[C@@]2(C)[C@]12CO2`, the mutagenic call (Test System: AMES SALMONELLA TYPHIMURIUM, Strain/Indicator: TA98, Metabolic Activation: RAT, LIVER, MICROSOMES, PHENOBARBITAL, Method: STANDARD PLATE) is reported as “inactive; negative”, the mutagenic call [1] is reported as “inactive; negative” and the mutagenic call (Test System: AMES SALMONELLA TYPHIMURIUM, Strain/Indicator: TA100, Metabolic Activation: RAT, LIVER, MICROSOMES, PHENOBARBITAL, Method: STANDARD PLATE) is reported as “inactive; negative”.
